Reference: PubChem BioAssay AID250 (DTP/NCI, 2004)
Where “and” joins values, the source holds several entries; their conditions need not be identical. Equal entries are not always repeated. Toxic doses and inconclusive results are not listed. The calls were made as follows: active = survival T/C of 150% or more; inactive = T/C below 125% in these data.

Test system: BDF1 mice, L1210 leukemia sc, survival T/C
Assay: NCI In Vivo Anticancer Drug Screen. Data for tumor model L1210 Leukemia (subcutaneous) in B6D2F1 (BDF1) mice
Settings: higher = longer survival
How it was run: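 Expressed as T/C: measurement in compound-treated, tumor-bearing mice relative to vehicle-treated control mice, based on survival or tumor size.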

Measured: T/C

CO[C@@]12[C@H](COC(N)=O)C3=C(C(=O)C(C)=C(N)C3=O)N1C[C@@H]1N[C@@H]12
inactive: endpoint: median survival time, dose: 0.1 mg/kg/injection, schedule: Q01DX Z (sc), vehicle: saline 95 % of control | endpoint: median survival time, dose: 0.17 mg/kg/injection, schedule: Q01DX Z (sc), vehicle: saline 100 % of control | endpoint: median survival time, dose: 0.28 mg/kg/injection, schedule: Q01DX Z (sc), vehicle: saline 100 % of control | endpoint: median survival time, dose: 0.47 mg/kg/injection, schedule: Q01DX Z (sc), vehicle: saline 91 % of control | endpoint: median survival time, dose: 0.79 mg/kg/injection, schedule: Q01DX Z (sc), vehicle: saline 100 % of control | endpoint: median survival time, dose: 1.0 mg/kg/injection, schedule: Q01DX009 (ip), vehicle: water 110 % of control | endpoint: median survival time, dose: 1.0 mg/kg/injection, schedule: Q01DX009 (sc), vehicle: water 101 % of control | endpoint: median survival time, dose: 1.08 mg/kg/injection, schedule: Q01DX Z (sc), vehicle: saline 100 % of control | endpoint: median survival time, dose: 1.3 mg/kg/injection, schedule: Q01DX Z (sc), vehicle: other 104 % of control | endpoint: median survival time, dose: 1.3 mg/kg/injection, schedule: Q01DX Z (sc), vehicle: saline 104 % of control | endpoint: median survival time, dose: 1.31 mg/kg/injection, schedule: Q01DX Z (sc), vehicle: saline 95 % of control | endpoint: median survival time, dose: 1.8 mg/kg/injection, schedule: Q01DX Z (sc), vehicle: saline 100 % of control | endpoint: median survival time, dose: 1.8 mg/kg/injection, schedule: Q02DX Z (sc), vehicle: saline 100 % of control | endpoint: median survival time, dose: 2.0 mg/kg/injection, schedule: Q01DX009 (ip), vehicle: water 110 % of control | endpoint: median survival time, dose: 2.0 mg/kg/injection, schedule: Q01DX009 (sc), vehicle: water 110 % of control and 118 % of control | endpoint: median survival time, dose: 2.16 mg/kg/injection, schedule: Q01DX Z (sc), vehicle: other 100 % of control | endpoint: median survival time, dose: 2.16 mg/kg/injection, schedule: Q01DX Z (sc), vehicle: saline 109 % of control | endpoint: median survival time, dose: 2.18 mg/kg/injection, schedule: Q01DX Z (sc), vehicle: saline 100 % of control | endpoint: median survival time, dose: 3.0 mg/kg/injection, schedule: Q01DX Z (sc), vehicle: saline 109 % of control | endpoint: median survival time, dose: 3.0 mg/kg/injection, schedule: Q02DX Z (sc), vehicle: saline 109 % of control | endpoint: median survival time, dose: 3.0 mg/kg/injection, schedule: Q## X Z (sc), vehicle: saline 104 % of control | endpoint: median survival time, dose: 3.6 mg/kg/injection, schedule: Q01DX Z (sc), vehicle: other 109 % of control | endpoint: median survival time, dose: 3.6 mg/kg/injection, schedule: Q01DX Z (sc), vehicle: saline 113 % of control | endpoint: median survival time, dose: 4.0 mg/kg/injection, schedule: Q01DX009 (ip), vehicle: water 92 % of control | endpoint: median survival time, dose: 4.0 mg/kg/injection, schedule: Q01DX009 (sc), vehicle: water 98 % of control and 121 % of control | endpoint: median survival time, dose: 5.0 mg/kg/injection, schedule: Q01DX001 (sc), vehicle: saline 109 % of control | endpoint: median survival time, dose: 5.0 mg/kg/injection, schedule: Q02DX Z (sc), vehicle: saline 118 % of control | endpoint: median survival time, dose: 5.0 mg/kg/injection, schedule: Q## X Z (sc), vehicle: saline 109 % of control | endpoint: median survival time, dose: 6.0 mg/kg/injection, schedule: Q01DX Z (sc), vehicle: other 113 % of control | endpoint: median survival time, dose: 6.0 mg/kg/injection, schedule: Q01DX Z (sc), vehicle: saline 118 % of control | endpoint: median survival time, dose: 6.06 mg/kg/injection, schedule: Q01DX Z (sc), vehicle: saline 116 % of control | endpoint: median survival time, dose: 8.0 mg/kg/injection, schedule: Q01DX009 (sc), vehicle: water 108 % of control | endpoint: median survival time, dose: 8.4 mg/kg/injection, schedule: Q01DX001 (sc), vehicle: saline 113 % of control | endpoint: median survival time, dose: 8.4 mg/kg/injection, schedule: Q01DX Z (sc), vehicle: saline 118 % of control | endpoint: median survival time, dose: 8.4 mg/kg/injection, schedule: Q## X Z (sc), vehicle: saline 122 % of control | endpoint: median survival time, dose: 10.0 mg/kg/injection, schedule: Q01DX Z (sc), vehicle: other 109 % of control | endpoint: median survival time, dose: 10.0 mg/kg/injection, schedule: Q01DX Z (sc), vehicle: saline 100 % of control | endpoint: median survival time, dose: 14.0 mg/kg/injection, schedule: Q01DX Z (sc), vehicle: saline 109 % of control | endpoint: median survival time, dose: 14.0 mg/kg/injection, schedule: Q02DX Z (sc), vehicle: saline 118 % of control | endpoint: median survival time, dose: 16.0 mg/kg/injection, schedule: Q01DX009 (sc), vehicle: water 97 % of control | endpoint: median survival time, dose: 23.0 mg/kg/injection, schedule: Q01DX001 (sc), vehicle: saline 118 % of control | endpoint: median survival time, dose: 23.0 mg/kg/injection, schedule: Q01DX Z (sc), vehicle: saline 109 % of control | endpoint: median survival time, dose: 23.0 mg/kg/injection, schedule: Q02DX Z (sc), vehicle: saline 118 % of control | endpoint: median survival time, dose: 23.0 mg/kg/injection, schedule: Q## X Z (sc), vehicle: saline 118 % of control | endpoint: median survival time, dose: 39.0 mg/kg/injection, schedule: Q01DX001 (sc), vehicle: saline 118 % of control | endpoint: median survival time, dose: 39.0 mg/kg/injection, schedule: Q02DX Z (sc), vehicle: saline 122 % of control | endpoint: median survival time, dose: 39.0 mg/kg/injection, schedule: Q## X Z (sc), vehicle: saline 118 % of control | endpoint: median survival time, dose: 65.0 mg/kg/injection, schedule: Q01DX001 (sc), vehicle: saline 109 % of control

CN(C)c1ccc(/C=C2\C=Cc3ccccc32)cc1
inactive: endpoint: median survival time, dose: 180.0 mg/kg/injection, schedule: Q01DX Z (sc), vehicle: carboxymethylcellulose (CMC) 100 % of control | endpoint: median survival time, dose: 300.0 mg/kg/injection, schedule: Q01DX Z (sc), vehicle: carboxymethylcellulose (CMC) 100 % of control | endpoint: median survival time, dose: 500.0 mg/kg/injection, schedule: Q01DX Z (sc), vehicle: carboxymethylcellulose (CMC) 105 % of control | endpoint: median survival time, dose: 833.0 mg/kg/injection, schedule: Q01DX Z (sc), vehicle: carboxymethylcellulose (CMC) 111 % of control

CS(C)=O
inactive: endpoint: median survival time, dose: 1.5 grams/kg/injection, schedule: Q01DX009 (ip), vehicle: saline 103 % of control | endpoint: median survival time, dose: 3.0 grams/kg/injection, schedule: Q01DX009 (ip), vehicle: saline 97 % of control | endpoint: median survival time, dose: 6.0 grams/kg/injection, schedule: Q01DX009 (ip), vehicle: saline 103 % of control

Nc1nc2c(c(=O)[nH]1)N=C(CNc1ccc(C(=O)NC(CCC(=O)O)C(=O)O)cc1)CN2 (centres undefined)
inactive: endpoint: mean survival time, dose: 1.0 mg/kg/injection, schedule: Q01DX009 (ip), vehicle: sodium bicarbonate 95 % of control | endpoint: mean survival time, dose: 2.0 mg/kg/injection, schedule: Q01DX009 (ip), vehicle: sodium bicarbonate 94 % of control | endpoint: mean survival time, dose: 4.0 mg/kg/injection, schedule: Q01DX009 (ip), vehicle: sodium bicarbonate 98 % of control | endpoint: mean survival time, dose: 4.0 mg/kg/injection, schedule: Q04DX003 (ip), vehicle: sodium bicarbonate 98 % of control | endpoint: mean survival time, dose: 8.0 mg/kg/injection, schedule: Q01DX009 (ip), vehicle: sodium bicarbonate 94 % of control | endpoint: mean survival time, dose: 8.0 mg/kg/injection, schedule: Q04DX003 (ip), vehicle: sodium bicarbonate 100 % of control | endpoint: mean survival time, dose: 16.0 mg/kg/injection, schedule: Q01DX009 (ip), vehicle: sodium bicarbonate 102 % of control | endpoint: mean survival time, dose: 16.0 mg/kg/injection, schedule: Q04DX003 (ip), vehicle: sodium bicarbonate 96 % of control | endpoint: mean survival time, dose: 32.0 mg/kg/injection, schedule: Q04DX003 (ip), vehicle: sodium bicarbonate 98 % of control | endpoint: mean survival time, dose: 64.0 mg/kg/injection, schedule: Q04DX003 (ip), vehicle: sodium bicarbonate 96 % of control

O=C1CCC(N2C(=O)c3ccccc3C2=O)C(=O)N1 (centres undefined)
inactive: endpoint: median survival time, dose: 6.0 mg/kg/injection, schedule: Q01DX Z (sc), vehicle: methylcellulose (MC) 100 % of control | endpoint: median survival time, dose: 12.0 mg/kg/injection, schedule: Q01DX Z (sc), vehicle: methylcellulose (MC) 100 % of control | endpoint: median survival time, dose: 24.0 mg/kg/injection, schedule: Q01DX Z (sc), vehicle: methylcellulose (MC) 100 % of control | endpoint: median survival time, dose: 48.0 mg/kg/injection, schedule: Q01DX Z (sc), vehicle: methylcellulose (MC) 100 % of control | endpoint: median survival time, dose: 65.0 mg/kg/injection, schedule: Q01DX Z (sc), vehicle: methylcellulose (MC) 100 % of control | endpoint: median survival time, dose: 108.0 mg/kg/injection, schedule: Q01DX Z (sc), vehicle: methylcellulose (MC) 94 % of control | endpoint: median survival time, dose: 180.0 mg/kg/injection, schedule: Q01DX Z (sc), vehicle: methylcellulose (MC) 88 % of control | endpoint: median survival time, dose: 300.0 mg/kg/injection, schedule: Q01DX Z (sc), vehicle: methylcellulose (MC) 100 % of control | endpoint: median survival time, dose: 500.0 mg/kg/injection, schedule: Q01DX Z (sc), vehicle: methylcellulose (MC) 100 % of control
